Read-outs that look alike come from different tables or passages of the source. Values belong to the molecule of their own block, whether it stands above or below them.
What was measured:
recombinant HarmOBP10 [1] = molecular target: T1, recombinant HarmOBP10 (Helicoverpa armigera, UniProt G9I573); assay: Competitive fluorescence binding assay (displacement of 1-NPN from HarmOBP10); settings: for activity at 1.6 µM: max conc 1.6 (titration 0.5–1.6 µM); for activity at 1.6 µM / activity at 6 µM / activity at 16 µM: read-out: % at max (percent of fluorescence measured at the maximum concentration); for quality as ligand of OBP10, in words: authors' comment on Table 1
T1 sequence (G9I573 entry or part of it): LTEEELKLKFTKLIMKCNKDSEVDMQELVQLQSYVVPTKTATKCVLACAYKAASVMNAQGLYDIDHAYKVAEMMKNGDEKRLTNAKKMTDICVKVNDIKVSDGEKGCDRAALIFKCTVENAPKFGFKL
Protocol: Emission fluorescence spectra were recorded on a Hitachi F-4500 at 25°C in a right angle configuration, with a 1 cm light path quartz cuvette and 5 nm slits for both excitation and emission. The protein was dissolved in 50 mM Tris-HCl buffer, pH 7.4, while ligands were added as 1 mM methanol solutions.
The probe was excited at 337 nm and emission spectra were recorded between 380 and 450 nm. […] Dissociation constant for 1-NPN and the stoichiometry of binding was obtained processing the data with Prism software.

recombinant HarmOBP10 [2] = molecular target: T1, recombinant HarmOBP10; assay: Fluorescence binding assay of the probe 1-NPN to recombinant HarmOBP10
Protocol: Emission fluorescence spectra were recorded on a Hitachi F-4500 at 25°C in a right angle configuration, with a 1 cm light path quartz cuvette and 5 nm slits for both excitation and emission. […]
The probe was excited at 337 nm and emission spectra were recorded between 380 and 450 nm. […] Dissociation constant for 1-NPN and the stoichiometry of binding was obtained processing the data with Prism software. Dissociation constants of the competitors were calculated from the corresponding IC50 values (concentrations of ligands halving the initial fluorescence value of 1-NPN), using the equation: KD = [IC50]/1+[1-NPN]/K1-NPN, [1-NPN] being the free concentration of 1-NPN and K1-NPN being the dissociation constant of the complex protein/1-NPN.

[3] = calculated from IC50: KD = [IC50]/1+[1-NPN]/K1-NPN, read-out: KD (calculated dissociation constant)
[4] = max conc 16 (titration 2–16 µM), protein and 1-NPN both 2 µM, percent of fluorescence without competitor
[5] = protein and 1-NPN both 2 µM, Tris pH 7.4, unit from method text, not in table, read-out: IC50 (concentration of ligand halving the initial fluorescence value)
[6] = protein and 1-NPN both 2 µM, percent of fluorescence without competitor
[7] = max conc 6 (titration 0.5–6 µM), protein and 1-NPN both 2 µM, percent of fluorescence without competitor

Compound: CCCCOC(=O)C=Cc1ccccc1 [n-Butyl cinnamate]
Kd (recombinant HarmOBP10 [1]; [3]): 9.7 µM | % at max (percent of fluorescence measured at the maximum concentration) (recombinant HarmOBP10 [1]; [4]): 42% | IC50 (recombinant HarmOBP10 [1]; [5]): 12.5 µM

activity at 1.6 µM (recombinant HarmOBP10 [1]; [6]): 73%
Compound: CCCCCC/C=C\CCCCCCCC=O [(Z)-9-Hexadecenal]

activity at 1.6 µM (recombinant HarmOBP10 [1]; [6]): 65%
Compound: CCCCCC/C=C\CCCCCCCCO [(Z)-9-Hexadecen-1-ol]

Kd (recombinant HarmOBP10 [1]; [3]): 9.7 µM | % at max (percent of fluorescence measured at the maximum concentration) (recombinant HarmOBP10 [1]; [4]): 37% | IC50 (recombinant HarmOBP10 [1]; [5]): 12.5 µM
Compound: COC(C=O)=Cc1ccccc1 [a-Methoxycinnamaldehyde]

Kd (recombinant HarmOBP10 [1]; [3]): 12.4 µM | % at max (percent of fluorescence measured at the maximum concentration) (recombinant HarmOBP10 [1]; [4]): 50% | IC50 (recombinant HarmOBP10 [1]; [5]): 16 µM
Compound: CC(CCCC(C)(C)O)CC(=O)O (stereo not shown) [Hydroxycitronellic acid]

activity at 6 µM (recombinant HarmOBP10 [1]; [7]): 73%
Compound: CCCCCCCCCCCC=O [Dodecanal]

Compound: CC(C)c1ccc(C=O)cc1 [p-Isopropylbenzaldehyde]
% at max (percent of fluorescence measured at the maximum concentration) (recombinant HarmOBP10 [1]; [4]): 77%

Compound: CCCCCCCCCC(=O)OCC [Ethyl decanoate]
Kd (recombinant HarmOBP10 [1]; [3]): 4.3 µM | IC50 (recombinant HarmOBP10 [1]; [5]): 5.5 µM | activity at 6 µM (recombinant HarmOBP10 [1]): 44%

activity at 16 µM (recombinant HarmOBP10 [1]; [4]): 59%
Compound: CC(=O)OCCC(C)CCCC(C)C (stereo not shown) [3,7-Dimethyloctyl acetate]

Kd (recombinant HarmOBP10 [1]; [3]): 4.7 µM | activity at 16 µM (recombinant HarmOBP10 [1]; [4]): 34% | IC50 (recombinant HarmOBP10 [1]; [5]): 6 µM
Compound: CC(C)CCCC(C)CCOC(=O)c1ccccc1 (stereo not shown) [3,7-Dimethyloctyl benzoate]

% at max (percent of fluorescence measured at the maximum concentration) (recombinant HarmOBP10 [1]; [4]): >100%
Compound: CC(C=O)Cc1ccc(C(C)C)cc1 (stereo not shown) [Cyclamen aldehyde]

quality as ligand of OBP10, in words (recombinant HarmOBP10 [1]): poor ligand | activity at 16 µM (recombinant HarmOBP10 [1]; [4]): 62%
Compound: CCCCOC(=O)c1ccccc1 [n-Butyl benzoate]

activity at 16 µM (recombinant HarmOBP10 [1]; [4]): 60%
Compound: CCCCCCCCCCCC(C)=O [2-Tridecanone]

Compound: COc1cc(/C=C/C=O)ccc1O [Coniferyl aldehyde]
IC50 (recombinant HarmOBP10 [1]): 7.5 µM | Kd (recombinant HarmOBP10 [1]): 5.8 µM | activity at 16 µM (recombinant HarmOBP10 [1]): 30%

activity at 6 µM (recombinant HarmOBP10 [1]; [7]): 55%
Compound: CCCCCCCCCCCCCCCCO [1-Hexadecanol]

activity at 6 µM (recombinant HarmOBP10 [1]; [7]): 62%
Compound: CCCCCCCCCC(=O)O [Decanoic acid]

Compound: c1ccc(Nc2cccc3ccccc23)cc1 [1-NPN]
Kd (recombinant HarmOBP10 [2]; 2 µM protein in 50 mM Tris-HCl, pH 7.4, single binding site, averages of three replicates, read-out: dissociation constant of 1-NPN): 5.7 µM | effect of pH on affinity of 1-NPN (recombinant HarmOBP10 [2]; pH range from 5 to 9.4): marked loss of affinity in acidic conditions

activity at 1.6 µM (recombinant HarmOBP10 [1]; [6]): 74%
Compound: CCCC/C=C\CCCCCCCCCCO [(Z)-11-Hexadecen-1-ol]

activity at 16 µM (recombinant HarmOBP10 [1]; [4]): > 100%
Compound: CCCCCCCCCC=O [Decanal]

Compound: C=CCCCCCCCCCC [1-Dodecene]
IC50 (recombinant HarmOBP10 [1]): 6 µM | Kd (recombinant HarmOBP10 [1]): 4.7 µM | quality as ligand of OBP10, in words (recombinant HarmOBP10 [1]): rather good ligand | activity at 6 µM (recombinant HarmOBP10 [1]): 50%

activity at 6 µM (recombinant HarmOBP10 [1]; [7]): 85%
Compound: CCCCCCCCCCCCCO [1-Tridecanol]

activity at 6 µM (recombinant HarmOBP10 [1]; [7]): 62%
Compound: CCCCCCCCCCCCS [1-Dodecanthiol]

Compound: CC(C)=CCC/C(C)=C/C=O [Citral]
activity at 16 µM (recombinant HarmOBP10 [1]): 66%

Kd (recombinant HarmOBP10 [1]; [3]): 10.9 µM | % at max (percent of fluorescence measured at the maximum concentration) (recombinant HarmOBP10 [1]; [4]): 48% | IC50 (recombinant HarmOBP10 [1]; [5]): 14 µM
Compound: CCCCOC(=O)c1ccc(C(C)(C)C)cc1 [Butyl p-tert-butylbenzoate]

activity at 16 µM (recombinant HarmOBP10 [1]; [4]): > 100%
Compound: CCCCCCCCCCCCOC(C)=O [Dodecyl acetate]

activity at 6 µM (recombinant HarmOBP10 [1]; [7]): 69%
Compound: CCCCCCCCCCCCCCCC(=O)OCC [Ethyl palmitate]

activity at 6 µM (recombinant HarmOBP10 [1]; [7]): 56%
Compound: CCCCCCCCCCCCCCCCCCO [1-Octadecanol]

activity at 16 µM (recombinant HarmOBP10 [1]; [4]): 73%
Compound: O=C(O)CCCc1ccccc1 [4-Phenylbutyric acid]

Compound: CCCCCCCCOC(=O)c1ccccc1 [n-Octyl benzoate]
quality as ligand of OBP10, in words (recombinant HarmOBP10 [1]): the best | Kd (recombinant HarmOBP10 [1]; [3]): 3.1 µM | % at max (percent of fluorescence measured at the maximum concentration) (recombinant HarmOBP10 [1]; [4]): 29% | IC50 (recombinant HarmOBP10 [1]; [5]): 4 µM

activity at 16 µM (recombinant HarmOBP10 [1]; [4]): 77%
Compound: CC(=O)OCCc1ccccc1 [2-Phenylethyl acetate]

Compound: CC(C)=CCC/C(C)=C/CC/C(C)=C/CO [Farnesol]
Kd (recombinant HarmOBP10 [1]; [3]): 5.4 µM | activity at 6 µM (recombinant HarmOBP10 [1]): 54%

activity at 6 µM (recombinant HarmOBP10 [1]; [7]): 63%
Compound: CCCCCCCCCCO [1-Decanol]

activity at 16 µM (recombinant HarmOBP10 [1]; [4]): 69%
Compound: CC(C)=CCC/C(C)=C/CO [Geraniol]

activity at 16 µM (recombinant HarmOBP10 [1]; [4]): 65%
Compound: COc1ccc(-c2ccccc2)cc1 [4-Phenylanisole]

Compound: C=CCc1ccc(O)c(OC)c1 [Eugenol]
activity at 16 µM (recombinant HarmOBP10 [1]): 80%

activity at 1.6 µM (recombinant HarmOBP10 [1]; [6]): 76%
Compound: CCCC/C=C\CCCCCCCCCC=O [(Z)-11-Hexadecenal]

quality as ligand of OBP10, in words (recombinant HarmOBP10 [1]): Even better ligands | Kd (recombinant HarmOBP10 [1]; [3]): 2.6 µM | % at max (percent of fluorescence measured at the maximum concentration) (recombinant HarmOBP10 [1]; [4]): 13% | IC50 (recombinant HarmOBP10 [1]; [5]): 3.3 µM
Compound: CC(C)(C)c1ccc(C(=O)c2ccccc2)cc1 [p-tert-Butylbenzophenone]

Compound: CC(C)=CCCC(C)=CC#N [Citralva]
% at max (percent of fluorescence measured at the maximum concentration) (recombinant HarmOBP10 [1]; [4]): 60%

Compound: CCCCCCOC(=O)c1ccccc1 [n-Hexyl benzoate]
Kd (recombinant HarmOBP10 [1]; [3]): 5.8 µM | % at max (percent of fluorescence measured at the maximum concentration) (recombinant HarmOBP10 [1]; [4]): 35% | IC50 (recombinant HarmOBP10 [1]; [5]): 7.5 µM

IC50 (recombinant HarmOBP10 [1]): 1.8 µM | Kd (recombinant HarmOBP10 [1]): 1.4 µM | quality as ligand of OBP10, in words (recombinant HarmOBP10 [1]): maximum of affinity | activity at 6 µM (recombinant HarmOBP10 [1]): 36%
Compound: CCCCCCCCCCCCCCO [1-Tetradecanol]

Compound: COc1cc(CC(=O)O)ccc1O [Homovanillic acid]
activity at 16 µM (recombinant HarmOBP10 [1]): 66%

activity at 16 µM (recombinant HarmOBP10 [1]; [4]): > 100%
Compound: COC(=O)C=Cc1ccccc1 [Methyl cinnamate]

Kd (recombinant HarmOBP10 [1]; [3]): 13.2 µM | activity at 16 µM (recombinant HarmOBP10 [1]; [4]): 51%
Compound: CCCCCCCCCCC(C)=O [2-Dodecanone]

activity at 16 µM (recombinant HarmOBP10 [1]; [4]): > 100%
Compound: CCCCCCCCC=O [Nonanal]

Kd (recombinant HarmOBP10 [1]; [3]): 10.5 µM | activity at 16 µM (recombinant HarmOBP10 [1]; [4]): 48% | IC50 (recombinant HarmOBP10 [1]; [5]): 13.5 µM
Compound: CC(CC=O)CCCC(C)(C)O (stereo not shown) [Hydroxycitronellal]

activity at 6 µM (recombinant HarmOBP10 [1]; [7]): 70%
Compound: CCCCCCCCCCCC(=O)OCC [Ethyl laurate]

activity at 6 µM (recombinant HarmOBP10 [1]; [7]): 56%
Compound: CCCCC/C=C\C/C=C\CCCCCCCC(=O)O [Linoleic acid]

Compound: O=C(O)/C=C/c1ccccc1 [Cinnamic acid]
activity at 16 µM (recombinant HarmOBP10 [1]): 74%

Compound: CCCCC/C(C=O)=C/c1ccccc1 [a-Amylcinnamaldehyde]
quality as ligand of OBP10, in words (recombinant HarmOBP10 [1]): Even better ligands | Kd (recombinant HarmOBP10 [1]; [3]): 2.7 µM | % at max (percent of fluorescence measured at the maximum concentration) (recombinant HarmOBP10 [1]; [4]): 13% | IC50 (recombinant HarmOBP10 [1]; [5]): 3.5 µM

activity at 6 µM (recombinant HarmOBP10 [1]; [7]): 73%
Compound: CCCCCCCCCCCCCC(=O)OCC [Ethyl myristate]

Compound: Cc1ccc2ccccc2c1 [2-Methylnaphthalene]
activity at 16 µM (recombinant HarmOBP10 [1]): 75%

Reference: publication PMC3264552, “Expression in Antennae and Reproductive Organs Suggests a Dual Role of an Odorant-Binding Protein in Two Sibling Helicoverpa Species” (PLoS ONE, 2012)
